Experiments:
Format in all cases: biochemical
[1] = system: Ca-calmodulin-stimulatable PDE I; test: Inhibition of the phosphodiesterases in vitro: PDE I; details: PDE I from porcine aorta or porcine brain; nucleotide 10^-6 mol/l; 1 μM CaCl2, 0.1 μM calmodulin; pH 7.5, 30 minutes
Protocol: (§1) The cGMP-stimulatable PDE II, the cGMP-inhibitable PDE III and the cAMP-specific PDE IV were isolated from either porcine or bovine myocardium. The Ca-calmodulin-stimulatable PDE I was isolated from the porcine aorta or porcine brain. The cGMP-specific PDE V was obtained from the porcine small intestine, porcine aorta and/or human blood platelets. Purification was carried out by anion exchange chromatography over MonoQ Phaacia essentially by the method of M. Hoey and Miles D. Houslay, Biochemical Pharmacology, Vol. 40, 193-202 (1990).
(§2) The enzyme activity is determined in a test batch of 100 μl in 20 mM Tris/HCl buffer of pH 7.5 which comprises 5 mM MgCl2, 0.1 mg/ml of bovine serum albumin and either 800 Bq of ^3 HcAMP or ^3 HcGMP. The final concentration of the corresponding nucleotides is 10^-6 mol/l. The reaction is started by addition of the enzyme and the amount of enzyme is chosen such that about 50% of the substrate is reacted during the incubation time of 30 minutes. To test the cGMP-stimulatable PDE II, ^3 HcAMP is used as the substrate and 10^-6 mol/l of non-labelled cGMP is added to the batch. To test the Ca-calmodulin-dependent PDE I, 1 μM CaCl2 and 0.1 μM calmodulin are also added to the reaction batch. The reaction is stopped by addition of 100 μl of acetonitrile which comprises 1 mnM cAMP and 1 mM AMP. 100 μl of the reaction batch are separated on the HPLC column and the cleavage products are determined quantitatively "online" with a flow-through scintillation counter. The substance concentration at which the rate of reaction is reduced by 50% is measured.

cGMP-stimulatable PDE II = test: Inhibition of the phosphodiesterases in vitro: PDE II; details: PDE II from porcine or bovine myocardium; 3H-cAMP substrate 10^-6 mol/l with 10^-6 mol/l cGMP; pH 7.5, 30 minutes
Protocol: as §1, §2

cGMP-specific PDE V = test: Inhibition of the phosphodiesterases in vitro: PDE V; details: PDE V from porcine small intestine, porcine aorta and/or human blood platelets; nucleotide 10^-6 mol/l; pH 7.5, 30 minutes
Protocol: as §1, §2

| SMILES | IC50 [1] [nM] | IC50 (cGMP-stimulatable PDE II) [nM] | IC50 (cGMP-specific PDE V) [nM] |
| --- | --- | --- | --- |
| CC(O)C(CCCc1ccccc1)n1cnc2c(=O)[nH]c(C3CCCCC3)nc21 (centres unmarked) [Example 8, 9-(2-hydroxy-6phenyl-3-hexyl)-2-cyclohexyl-purin-6one] | 40000 | 2000 | – |
| CCCCCCC(C(C)O)n1cnc2c(=O)[nH]c(-c3ccc(Cl)cc3)nc21 (centres unmarked) [Example 5] | 10000 | 3000 | 50000 |

The next compounds have a lower IC50 [1] than those just listed; values first:

| IC50 [1] [nM] | IC50 (cGMP-stimulatable PDE II) [nM] | IC50 (cGMP-specific PDE V) [nM] | SMILES |
| --- | --- | --- | --- |
| 4000 | 600 | 300 | CC(CCCc1ccccc1)n1cnc2c(=O)[nH]c(C3CC3)nc21 (centres unmarked) [Example 14] |
| 3000 | 100 | 10000 | CC(CCCc1ccccc1)n1cnc2c(=O)[nH]c(-c3ccc4c(c3)OCO4)nc21 (centres unmarked) [Example 25] |
| 1000 | 400 | 1000 | CC(CCCc1ccccc1)n1cnc2c(=O)[nH]c(-c3ccc(-c4ccccc4)cc3)nc21 (centres unmarked) [Example 20] |

Source: patent publication US5861404A, “2,9-disubstituted purin-6-ones” (Bayer Aktiengesellschaft, priority 1995, dated 1999)
